Experimental data reported in paper PMC8955307, “Nucleobase-Derived Nitrones: Synthesis and Antioxidant and Neuroprotective Activities in an In Vitro Model of Ischemia–Reperfusion” (International Journal of Molecular Sciences, 2022).
Several values for one entry are separate records, joined by “and”; a condition that tells them apart may be missing. Identical values can stand only once. Like-named read-outs stand apart in the source and are kept apart here.

What was measured:
[1] = system: SH-SY5Y human neuroblastoma cells; assay: Neuroprotection: cell viability (XTT metabolic activity) after OGD (4 h) followed by OGR (24 h) (IR); format: cell-based; settings: OGD 4 h + OGR 24 h (IR); for EC50: compounds 0.01 μM to 1 mM, read-out: Neuroprotection EC50 ± SEM; for Emax: 24 h, read-out: Maximal Activity mean±SEM (neuroprotection)
Description: Cultures of human neuroblastoma cells from line SH-SY5Y were performed in flasks containing Dulbecco’s: Ham’s F12, 1:1 [v/v] composed of 0.5 mM sodium pyruvate, 2.5 mM GlutaMAX™; GIBCO, Life Technologies, Madrid (Spain), 3.15 mg/mL glucose, 1% Antibiotic-Antimycotic (100 ui/mL penicillin, […] streptomycin, and 0.25 mg amphotericin B), 1% Gentamicin 15 mg/mL (Sigma-Aldrich, Madrid, Spain) and 10% Fetal Calf Serum (FCS) (Gibco; Life Technologies, Madrid, Spain) as as described. For each experiment, neuroblastoma cells were digested partially with 0.25% trypsin-EDTA and seeded in plates of 96 or 48 wells with a density of 0.5–1 or 2–2.5 × 10^5 cells/well, respectively, depending on the assay. At 80% confluence of the seeded cells, medium was renewed adding 0.1–1000 µM of the compounds tested.
To induce experimental ischemia, and the sub-consequent cellular damage, the neuroblastoma cultures underwent OGD for 3–4 h, maintained in a glucose-free Dulbecco’s medium inside an anaerobic chamber in the presence of a gas mixture of 95% N2/5% CO2 and humidified at 37 °C at a constant pressure of 0.15 bar. After the OGD period (4 h), medium was substituted by oxygenated 10% FCS-containing medium, and cells were incubated in conditions of normoxia for 24 h to recovery (R24h). The compounds used in the neuroprotection studies: nitrones 9a–i, α-phenyl-N-tert-butyl nitrone (PBN) and N-acetyl-L-cysteine (NAC) (0.01 μM−1000 µM), were added at the beginning of R24h as described. Concurrently, controls in the absence of the OGD procedure were performed by maintaining these cells with Dulbecco’s medium including glucose for 3–4 h in an incubator in conditions of normoxia during the OGD period; thereafter, the medium was changed, and the cells (in the presence or absence of the different study compounds) were returned to the incubator for 24 h of recovery, as described. In addition, experiments including the same amounts of vehicle (final concentration < 1% dimethyl sulfoxide) were performed, serving as controls. The effects of nitrones 9a–g were analyzed three-five times independently using different culture batches, and each experiment was carried out in triplicate.
(§1) Cell viability measurements were carried out in human neuroblastoma cells SHSY5Y using 96-well culture plates, containing about 0.5–1 × 10^5 cells/well, after the OGD-R24h or control treatment including 0.01–1000 µM of the different testing compounds (nitrones 9a–g, PBN, and NAC), utilizing the Cell Proliferation Kit II (XTT), Sigma Aldrich, Madrid, Spain, which determines the culture’s metabolic capacity, as described in [21, 22]. XTT solution (0.3 mg/mL final concentration) was added to the seeded cells, incubated for 2 h at 37 °C with 5% CO2 and 95% air (v/v), and a spectrophotometer reader (Biotek Power-Wave XS microplate-reader (BioTek Instruments, Madrid, Spain) was used to register the absorbance at 450 nm (reference 650 nm) of the soluble formazan product generated. 100% viability was set by control normoxic cells treated with medium only, and control cells were added 0.001–1% DMSO in every assay.

[2] = Reducing ability: interaction with DPPH; settings: tested at 100 µM
[3] = system: human neuroblastoma SH-SY5Y cells; assay: Basal neurotoxicity: cell viability under basal conditions; format: cell-based
Description: as §1

[4] = Inhibition of lipid peroxidation (ILPO), AAPH protocol with sodium linoleate; settings: tested at 100 µM
Description: The reactants consisting of 10 µL (16 mM) sodium linoleate, 10 µL of the tested nitrones in DMSO (final concentration 100 µM), 50 µL of AAPH ([…]) as a free radical initiator, 930 µL phosphate buffer pH 7.4 (0.05 M) at 37 °C under air, were mixed and the reaction’s result (as absorbance value) was recorded at 234 nm in comparison to PBN as a reference.

Row | Structure (SMILES) | EC50 ([1]; Homo sapiens) | melting point | DPPH (%) [2] | Maximal Activity mean±SEM (neuroprotection) [1] | EC50 [1] | Neurotoxic effects at basal level (cell viability) [3] | ILPO (%) [4] | Emax ([1]; Homo sapiens)
1 | C/[N+]([O-])=C/Cn1cnc2c(N)ncnc21 [9f] | 1.55 ± 0.15 µM | 211 °C (dec.) | 9% | – | – | – | – | –
2 | CC(C)(C)[N+]([O-])=Cc1ccccc1 [PBN, α-phenyl-N-tert-butylnitrone, reference compound] | – | – | – | 96.93 ±6.97% and ≈ 96% | 33.5 µM and ~35 µM | did not show any neurotoxic effects | 11% | –
3 | C/[N+]([O-])=C/Cn1cc(Br)c(=O)[nH]c1=O [9d] | 29.2 ± 7.72 µM | 180 °C (dec.) | 6% | – | – | – | – | 125 ± 8.05%
4 | Cc1cn(C/C=[N+](/C)[O-])c(=O)[nH]c1=O [9b] | 193 ± 36.7 µM | 182 °C (dec.) | 11% | – | – | – | 55% | 123 ± 8.46%
5 | C/[N+]([O-])=C/Cn1cc(Cl)c(=O)[nH]c1=O [9e] | 165 ± 26.1 µM | 180 °C (dec.) | 13% | – | – | – | 68% | 99.7 ± 5.98%
6 | C/[N+]([O-])=C/Cn1cc(Br)c(=O)n(C/C=[N+](/C)[O-])c1=O [9i] | 23.6 ± 4.17 µM | – | 76% | – | – | – | 71% | 110 ± 3.97%
